Assays:
murine neutrophils [1] = assay: Two-chamber migration of neutrophils recruited by media of neutrophils pre-treated with 4T07 CM; type: cell-based; conditions: media of neutrophils pre-treated with CM of 4T07 with CTSC overexpressed; FIG. 7E
Method: The procedure of two-chamber migration assays was previously described (Zhuang et al., “Differential effects on lung and bone metastasis of breast cancer by Wnt signalling inhibitor DKK1,” Nat. Cell Biol. 19:1274-1285 (2017)). Briefly, 5×10^5 freshly isolated neutrophils in RPMI 1640 were added to the upper chamber (363096, BD), and a 1:1 mixture of RPMI 1640 and cancer cell CM, or medium from neutrophils cultured in cancer cell CM, was added to the lower chamber as the chemoattractant. The migrated cells in the lower chamber were counted after 3 h.

[2] = system: SCP28 cells overexpressing CTSC; assay: Mice injected with CTSC-overexpressed SCP28 cells, treated with Sivelestat or DNase I; type: in vivo
Method: Female BALB/c and athymic mice aged 6-10 weeks were used in all animal experiments. Orthotropic and intravenous injection were performed as previously described (Zhuang et al., “Differential effects on lung and bone metastasis of breast cancer by Wnt signalling inhibitor DKK1,” Nat. Cell Biol. 19:1274-1285 (2017)). For EdU labeling assays, nude mice were intravenously injected with 2×10^5 cancer cells, followed by intraperitoneal (i.p.) injection of 100 ng/mouse EdU (ThermoFisher, C10640) 24 h before lung harvest. For neutrophil depletion assays, mice received 2 initial i.p. injection (200 μg/mouse) of 1A8 Ly6G antibody (BE0075-1, BioXCel) or rat IgG control (14131, Sigma) every 3 days before cancer cell injection and then maintenance injection twice a week after cancer cell injection. For Sivelestat or DNase I treatment, mice were i.p. injected with Sivelestat (50 mg/kg) or DNase I (5 mg/kg) 2 h before cancer cell injection, followed by daily injection of the reagents for 9 days, and then maintenance shots twice a week. For GSK484 treatment, mice were treated with GSK484 (20 mg/kg, i.p. daily shots for 20 days from day 7, and then maintenance shots every two days) following orthotopic injection of AT3 or 4T07 cells. For IL-1b blocking or IL6R/CCR1 inhibition assays, mice were orthotopically inoculated with 5×10^4 AT3 and treated with i.p. administration of IgG or the IL-1β blocking antibody (100 μg per mouse), or the IL6R blocking antibody (100 μg per mouse) and the CCR1 inhibitor BX471 (20 mg/kg), every two days from day 7 until the mice were sacrificed. For brensocatib treatment, BALB/c mice were orthotopically inoculated with 1×10^5 4T1 cells, and C57/BL6 mice were orthotopically inoculated with 2×10^5 AT3. […]
The number of myeloperoxidase-positive neutrophils around GFP^+ cancer cells in the lungs of mice 72 h after injection with CTSC-overexpressed SCP28 is quantified by immunostaining of the lung tissue. […]

murine neutrophils [3] = assay: Reactive oxygen species (ROS) analysis of neutrophils pre-treated with 4T07 conditioned medium; type: cell-based; conditions: 4T07 CM with CTSC overexpressed, inhibitors 10 μM, FIGS. 8C, 8E
Method: To measure the ROS levels, neutrophils were cultured in cancer cell CM or non-conditioned medium, and treated with DMSO or various inhibitors, including Sivelestat (10 μM), BAY11-7082 (10 μM) and SB203580 (10 μM) for 1 h at 37° C. Cells were then harvested and resuspended in assay buffer (PBS, 4 mM EGTA, pH 7.4, containing 10 μM CM-H2DCFDA, Invitrogen), incubated for 15 min at 37° C. in dark, washed with pre-chilled PBS, followed by FACS analysis within 30 min.
The release of reactive oxygen species (ROS) by neutrophils is known to induce NET formation. […] Commum. 6, 6673 (2015).
ROS analysis of murine neutrophils pre-treated with 4T07 conditioned medium show increased ROS production results from CTSC overexpression (FIG. 8E).

[4] = system: liver-metastatic breast cancer cell SCP16; assay: Tumor sphere formation of liver-metastatic breast cancer cells in neutrophil medium; type: cell-based; conditions: neutrophils cultured with cancer cell CM with or without brensocatib, FIG. 11H
Method: The neutrophils are cultured with conditioned medium from the cancer cells with or without brensocatib treatment to activate NETosis, and then the neutrophil medium was used in tumor sphere formation of bone and liver-metastatic breast cancer cells to analyze the effect of neutrophil medium to facilitate tumor cell growth. The data are shown in FIG. 11E for bone-metastatic breast cancer cell SCP2 and FIG. 11H for liver-metastatic breast cancer cell SCP16.

Row | Structure (SMILES) | migration of murine neutrophils (murine neutrophils [1]) | neutrophil aggregation around cancer cells in the lungs ([2]; 7 weeks post-injection, FIG. 7G) | neutrophil aggregation around cancer cells in the lungs ([2]; 72 h after injection, Sivelestat 50 mg/kg i.p., FIG. 7F) | lung metastasis (BLI) ([2]; up to 8 weeks post-injection, Sivelestat 50 mg/kg or DNase I 5 mg/kg i.p., FIG. 8G) | ROS production / ROS levels (murine neutrophils [3]) | capability of drug-treated neutrophils to facilitate tumor cell growth (tumor sphere formation) [4]
1 | CC(C)(C)C(=O)Oc1ccc(S(=O)(=O)Nc2ccccc2C(=O)NCC(=O)O)cc1 [Silvelestat] | significantly reduced | persist through 7 weeks post-injection | decreases | suppressed | blocks | –
2 | Cn1c(=O)oc2ccc(-c3ccc(C[C@@H](C#N)NC(=O)[C@@H]4CNCCCO4)cc3)cc21 [brensocatib, (2S)—N-{(1S)-1-cyano-2-[4-(3-methyl-2-oxo-2,3-dihydro-1,3-benzoxazol-5-yl)phenyl]ethyl}-1,4-oxazepane-2-carboxamide] | – | – | – | – | – | significantly weakened
